Target: T1, IifC (Acinetobacter baumannii, UniProt A0ABX6CFV1)
T1 construct: gene styA; full length, 412 aa; pQE-80L (BamHI/PstI); expressed in E. coli CY15000 (tnaA mutant); purified by Q-Sepharose anion exchange
T1 sequence (A0ABX6CFV1 1-412): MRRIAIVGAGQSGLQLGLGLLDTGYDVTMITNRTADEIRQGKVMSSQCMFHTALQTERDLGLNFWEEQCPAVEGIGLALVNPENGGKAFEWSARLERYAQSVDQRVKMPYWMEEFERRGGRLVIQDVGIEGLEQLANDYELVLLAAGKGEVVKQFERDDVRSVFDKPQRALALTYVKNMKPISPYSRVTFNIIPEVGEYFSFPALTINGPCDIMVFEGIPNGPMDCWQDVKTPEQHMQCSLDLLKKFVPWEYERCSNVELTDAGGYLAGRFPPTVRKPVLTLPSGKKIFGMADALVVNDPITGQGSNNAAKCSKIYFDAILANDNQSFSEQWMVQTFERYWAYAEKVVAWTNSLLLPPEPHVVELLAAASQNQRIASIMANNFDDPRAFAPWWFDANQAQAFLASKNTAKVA
Test: FAD content of purified protein
Format: binding
Settings: as purified from E. coli; non-covalently bound

Cc1cc2nc3c(=O)[nH]c(=O)nc-3n(C[C@H](O)[C@H](O)[C@H](O)COP(=O)(O)OP(=O)(O)OC[C@H]3O[C@@H](n4cnc5c(N)ncnc54)[C@H](O)[C@@H]3O)c2cc1C [flavin adenine dinucleotide]
mol FAD per mol protein: 0.48 mol/mol
